Data: patent publication US20080318908A1, “USE OF GABA AND GABAB AGONISTS” (TRUSTEES OF TUFTS COLLEGE, priority 2002, published 2008)

Columns and labels:
Type in all cases: cell-based, rat
islets [1] = test: Islet total DNA content, Cyquant fluorescence assay
Experimental: To examine the potential function of GABAB receptor signaling in islet tissue, islets were enzymatically isolated from exocrine pancreas and studied in vitro. Islets were size-selected for these studies because of our observation that small islets (<150 μm diameter) express GABAB receptors more abundantly. Islets (equivalent to ˜10,000 cells per well of a 96 well culture plate) were incubated for 45 minutes with (or without) 100 μM GABA, washed once with growth medium M199, maintained for 4 hours at 37° C., and subsequently analyzed for total DNA content using a Cyquant (Molecular Probes) fluorescence assay. […] Large islets, by contrast, were much less responsive to GABA; increasing only by 15±4.5% in the same time period. The growth-promoting effect of GABA was mimicked by the selective GABAB receptor agonist, S-baclofen and inhibited with either 2OH-saclofen (a selective inhibitor of GABAB receptors) or the N-terminal antibody to the GABAB receptor (FIG. 4A).
To further evaluate the interactions between glucose and GABAB receptor activation, we measured GABA-mediated proliferation over a range of glucose concentrations.

islets [2] = test: Glucose-stimulated proliferation in islets (DNA content)
Experimental: Others have shown that islet mass can increase by as much as 50% in just 96 hours of glucose infusion in vivo, an effect that results from increases in both cell size and cell number^15. Given that metabolism of glucose alone promotes secretion from β cells, we tested the hypothesis that glucose-stimulated proliferation in islets involves the activation of GABAB receptors by GABA released during glucose application. Islets were exposed to 5.6 mM glucose (a maximal proliferative stimulus in human islets) for 4.75 hours in the presence or absence of 2OH-saclofen or the GBR1 N-terminal antibody. Glucose promoted a small, but significant, 7±1% stimulation of control islets during this time (FIG. 5A).

islets [3] = test: [3H]thymidine incorporation in islets; conditions: label present throughout the 4.75 hour experimental period
Experimental: [^3H]thymidine incorporation was employed as an alternative assay for DNA synthesis, with similar results to those of the fluorescence assay. The labeled nucleotide was added to the culture medium and was present throughout the 4.75 hour experimental period. GABA, and the agonist baclofen, acting via GABAB receptors produced a respective 143±19% and 115±4% increase in [^3H]thymidine incorporation (FIG. 4B).

islets [4] = test: BrdU labeling of dividing islet cells; conditions: 4.75 hours; GABA-treated versus control islets
Experimental: To identify which cells in islets underlie the increase in DNA synthesis, cells treated with GABA were exposed to BrdU, to label the dividing cells, and compared to control cells. […] Given the brief incorporation period (4 hours following GABA exposure), such profiles imply that the responsive cells are likely to be synchronized in S phase.

spleen cells = test: DNA content of dissociated cultured spleen, Cyquant assay; conditions: 100 micromolar for 45 minutes, then four hours in fresh medium at 37°
Experimental: An experiment to test the ability of GABA and the GABAB receptor agonist to stimulate growth of other tissues was undertaken. Rat spleen was mechanically dissociated in trypsin, washed, and plated identical to the experiments using rat islets, described above. The dissociated tissue was cultured in the presence of 100 micromolar GABA or baclofen for 45 minutes and compared to cultured but untreated dissociated spleen. After 45 minutes the media was changed and the tissue incubated in fresh medium for four hours at 37°. DNA measurements were made by the Cyquant assay by Molecular Probes.

## NCC(O)(CS(=O)(=O)O)c1ccc(Cl)cc1 (stereo not shown) [2OH-saclofen, reference compound]
Islets [1]; isolated islets with GABA, FIG. 4A, 100 μM antagonist or antibody 1:1000
  effect on growth-promoting effect of GABA: inhibited
Islets [2]; 5.6 mM glucose for 4.75 hours in the presence of 2OH-saclofen
  DNA, % of DNA content measured at the beginning of the incubation period: 92±4%

## NCCCC(=O)O [GABA, 4-aminobutanoic acid]
Islets [1]; 45 min exposure to 100 μM GABA, 5.6 mM glucose
  GABA-stimulated DNA synthesis at moderate glucose: peaked at moderate glucose concentrations
Islets [1]; 45 min exposure to 100 μM GABA, 16.7 mM glucose
  GABA-stimulated DNA synthesis at higher glucose: suppressed the stimulatory effect of GABA
Islets [1]; large islets, 100 μM GABA 45 minutes, same 4.75 hour period
  increase in DNA synthesis, large islets: 15±4.5%
Islets [1]; small islets (<150 μm diameter), 100 μM GABA 45 minutes, then 4 hours at 37° C., 4.75 hours total
  increase in DNA synthesis, small islets: 45%
Islets [3]
  increase in [3H]thymidine incorporation: 143±19%
Islets [4]
  BrdU incorporation: detectable BrdU incorporation
Spleen cells
  DNA content of cultured spleen cells versus untreated: promoted an increase in the DNA content

## OC[C@H]1OC(O)[C@H](O)[C@@H](O)[C@@H]1O (stereo partly shown) [Glucose]
Islets [2]; 5.6 mM glucose for 4.75 hours
  stimulation of control islets (DNA): 7±1%

## NC[C@@H](CC(=O)O)c1ccc(Cl)cc1 [S-baclofen, reference compound]
Islets [1]; isolated islets, FIG. 4A, 100 μM
  growth-promoting effect of GABA mimicked by agonist: mimicked

## NCC(CC(=O)O)c1ccc(Cl)cc1 (stereo not shown) [baclofen, 4-amino-3-(4-chlorophenyl)butanoic acid, reference compound]
Islets [3]
  increase in [3H]thymidine incorporation: 115±4%
Spleen cells
  DNA content of cultured spleen cells versus untreated: promoted an increase in the DNA content
